Assay results from PubChem BioAssay AID1259407 (Chemical Carcinogenesis Research Information System (CCRIS), 2018).
Calls of active or inactive are those of the source. The rule behind the calls is not given here.

System: CCRIS mutagenicity, Ames/micronucleus/aberration tests
Assay: CCRIS mutagenicity studies
[1] = Test System: AMES SALMONELLA TYPHIMURIUM, Strain/Indicator: TA98, Metabolic Activation: NONE, Method: PREINCUBATION
[2] = Test System: AMES SALMONELLA TYPHIMURIUM, Strain/Indicator: TA100, Metabolic Activation: NONE, Method: PREINCUBATION

Cn1c(N)nc2nc3ccncc3cc21
mutagenic call (Test System: AMES SALMONELLA TYPHIMURIUM, Strain/Indicator: TA98, Metabolic Activation: RAT, LIVER, S-9, AROCLOR 1254A, Method: STANDARD PLATE): inactive; negative | mutagenic call (Test System: AMES SALMONELLA TYPHIMURIUM, Strain/Indicator: YG1024, Metabolic Activation: RAT, LIVER, S-9, AROCLOR 1254A, Method: STANDARD PLATE): active; positive

Nc1ncn([C@@H]2O[C@H](CO)[C@@H](O)[C@@H]2O)c(=O)n1
mutagenic call (Test System: AMES SALMONELLA TYPHIMURIUM, Strain/Indicator: TA98, Metabolic Activation: HAMSTER, LIVER, S-9, AROCLOR 1254, Method: STANDARD PLATE): inactive; negative | mutagenic call (Test System: AMES SALMONELLA TYPHIMURIUM, Strain/Indicator: TA98, Metabolic Activation: NONE, Method: STANDARD PLATE): inactive; negative | mutagenic call (Test System: AMES SALMONELLA TYPHIMURIUM, Strain/Indicator: TA98, Metabolic Activation: RAT, LIVER, S-9, AROCLOR 1254, Method: STANDARD PLATE): inactive; negative | mutagenic call (Test System: AMES SALMONELLA TYPHIMURIUM, Strain/Indicator: TA100, Metabolic Activation: HAMSTER, LIVER, S-9, AROCLOR 1254, Method: STANDARD PLATE): inactive; negative | mutagenic call (Test System: AMES SALMONELLA TYPHIMURIUM, Strain/Indicator: TA100, Metabolic Activation: NONE, Method: STANDARD PLATE): inactive; negative | mutagenic call (Test System: AMES SALMONELLA TYPHIMURIUM, Strain/Indicator: TA100, Metabolic Activation: RAT, LIVER, S-9, AROCLOR 1254, Method: STANDARD PLATE): inactive; negative | mutagenic call (Test System: AMES SALMONELLA TYPHIMURIUM, Strain/Indicator: TA1535, Metabolic Activation: HAMSTER, LIVER, S-9, AROCLOR 1254, Method: STANDARD PLATE): inactive; negative | mutagenic call (Test System: AMES SALMONELLA TYPHIMURIUM, Strain/Indicator: TA1535, Metabolic Activation: NONE, Method: STANDARD PLATE): inactive; negative | mutagenic call (Test System: AMES SALMONELLA TYPHIMURIUM, Strain/Indicator: TA1535, Metabolic Activation: RAT, LIVER, S-9, AROCLOR 1254, Method: STANDARD PLATE): inactive; negative | mutagenic call (Test System: AMES SALMONELLA TYPHIMURIUM, Strain/Indicator: TA1537, Metabolic Activation: HAMSTER, LIVER, S-9, AROCLOR 1254, Method: STANDARD PLATE): inactive; negative | mutagenic call (Test System: AMES SALMONELLA TYPHIMURIUM, Strain/Indicator: TA1537, Metabolic Activation: NONE, Method: STANDARD PLATE): inactive; negative | mutagenic call (Test System: AMES SALMONELLA TYPHIMURIUM, Strain/Indicator: TA1537, Metabolic Activation: RAT, LIVER, S-9, AROCLOR 1254, Method: STANDARD PLATE): inactive; negative | mutagenic call (Test System: AMES SALMONELLA TYPHIMURIUM, Strain/Indicator: TA1538, Metabolic Activation: HAMSTER, LIVER, S-9, AROCLOR 1254, Method: STANDARD PLATE): inactive; negative | mutagenic call (Test System: AMES SALMONELLA TYPHIMURIUM, Strain/Indicator: TA1538, Metabolic Activation: NONE, Method: STANDARD PLATE): inactive; negative | mutagenic call (Test System: AMES SALMONELLA TYPHIMURIUM, Strain/Indicator: TA1538, Metabolic Activation: RAT, LIVER, S-9, AROCLOR 1254, Method: STANDARD PLATE): inactive; negative | mutagenic call (Test System: MOUSE LYMPHOMA, Strain/Indicator: L5178Y (TK+/TK-), Metabolic Activation: NONE, Method: SUSPENSION/PLATE): active; positive. reevaluation of results: inconclusive | mutagenic call (Test System: MOUSE LYMPHOMA, Strain/Indicator: L5178Y (TK+/TK-), Metabolic Activation: RAT, LIVER, S-9, AROCLOR 1254, Method: SUSPENSION/PLATE): inactive; negative. reevaluation of results: inconclusive

OCCN1CCNCC1
mutagenic call [1]: inactive; negative | mutagenic call (Test System: AMES SALMONELLA TYPHIMURIUM, Strain/Indicator: TA98, Metabolic Activation: RAT, LIVER, S-9, PCB, Method: PREINCUBATION): inactive; negative | mutagenic call [2]: inactive; negative | mutagenic call (Test System: AMES SALMONELLA TYPHIMURIUM, Strain/Indicator: TA100, Metabolic Activation: RAT, LIVER, S-9, PCB, Method: PREINCUBATION): inactive; negative

OCCCCCCO
mutagenic call [1]: inactive; negative | mutagenic call (Test System: AMES SALMONELLA TYPHIMURIUM, Strain/Indicator: TA98, Metabolic Activation: RAT LIVER S-9, PHENOBARBITAL AND BETA-NAPHTHOFLAVONE, Method: PREINCUBATION): inactive; negative | mutagenic call [2]: inactive; negative | mutagenic call (Test System: AMES SALMONELLA TYPHIMURIUM, Strain/Indicator: TA100, Metabolic Activation: RAT LIVER S-9, PHENOBARBITAL AND BETA-NAPHTHOFLAVONE, Method: PREINCUBATION): inactive; negative | mutagenic call (Test System: AMES SALMONELLA TYPHIMURIUM, Strain/Indicator: TA1535, Metabolic Activation: NONE, Method: PREINCUBATION): inactive; negative | mutagenic call (Test System: AMES SALMONELLA TYPHIMURIUM, Strain/Indicator: TA1535, Metabolic Activation: RAT LIVER S-9, PHENOBARBITAL AND BETA-NAPHTHOFLAVONE, Method: PREINCUBATION): inactive; negative | mutagenic call (Test System: AMES SALMONELLA TYPHIMURIUM, Strain/Indicator: TA1537, Metabolic Activation: NONE, Method: PREINCUBATION): inactive; negative | mutagenic call (Test System: AMES SALMONELLA TYPHIMURIUM, Strain/Indicator: TA1537, Metabolic Activation: RAT LIVER S-9, PHENOBARBITAL AND BETA-NAPHTHOFLAVONE, Method: PREINCUBATION): inactive; negative | mutagenic call (Test System: E.COLI, Strain/Indicator: WP2UVRA/PKM101, Metabolic Activation: NONE, Method: PREINCUBATION): inactive; negative | mutagenic call (Test System: E.COLI, Strain/Indicator: WP2UVRA/PKM101, Metabolic Activation: RAT LIVER S-9, PHENOBARBITAL AND BETA-NAPHTHOFLAVONE, Method: PREINCUBATION): inactive; negative

CCOC(=O)NO
mutagenic call (Test System: AMES SALMONELLA TYPHIMURIUM, Strain/Indicator: TA98, Metabolic Activation: RAT, LIVER, S-9, KC500 OR PHENOBARBITAL, Method: LIQUID SUSPENSION): active; positive | mutagenic call (Test System: E. COLI, Strain/Indicator: WP2 UVRA, Metabolic Activation: NONE, Method: FLUCTUATION TEST): active; positive

Cn1cnc2c3cccnc3ccc21
mutagenic call [1]: active; positive | mutagenic call (Test System: AMES SALMONELLA TYPHIMURIUM, Strain/Indicator: TA98, Metabolic Activation: RAT, LIVER, S-9, AROCLOR 1254, Method: PREINCUBATION): active; positive | mutagenic call [2]: active; positive | mutagenic call (Test System: AMES SALMONELLA TYPHIMURIUM, Strain/Indicator: TA100, Metabolic Activation: RAT, LIVER, S-9, AROCLOR 1254, Method: PREINCUBATION): active; positive
